What is called pIC50 is the IC50 on a negative log10 scale, so that one unit is a factor of ten.

The text below walks through data of ChEMBL document CHEMBL3301562, “MMV Box screening against Plasmodium falciparum protein kinases and aminoacyl tRNA synthetases”.

Holding throughout (format): functional
Assay [1] deals with T1, Cdk-related protein kinase 6 (Plasmodium falciparum, UniProt O77239).
T1 sequence (O77239 whole entry): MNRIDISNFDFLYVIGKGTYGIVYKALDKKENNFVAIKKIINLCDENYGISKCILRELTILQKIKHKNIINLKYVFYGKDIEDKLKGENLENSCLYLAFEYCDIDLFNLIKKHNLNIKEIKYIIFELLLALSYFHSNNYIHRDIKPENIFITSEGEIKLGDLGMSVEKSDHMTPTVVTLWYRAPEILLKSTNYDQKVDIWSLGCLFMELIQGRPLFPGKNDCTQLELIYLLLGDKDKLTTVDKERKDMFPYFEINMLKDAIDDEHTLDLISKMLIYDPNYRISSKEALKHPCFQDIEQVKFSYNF
In words: Final concentrations were 1.5 uM ATP, 5 mM MnCl2, and 15 ug/ml PK6 in a buffer of 100 mM Tris-HCl (pH 7.5). 50 ug/mL MBP was provided as the substrate; 10 uM staurosporine was used as a control inhibitor. Incubation time was 3 hours and 40 minutes.The catalytic activity of each kinase was considered proportional to ATP consumed, as determined from measurements of residual [ATP] with the luciferase-based reagent Kinase-Glo (Promega) following incubation. Luminescence (proportional to residual [ATP]) was measured on the plate readers FLx800 (BioTek Instruments, Winooski, VT, USA) and MicroBeta2. On the technique in general: Kinase-Glo reads ATP consumption through a luciferase reaction.

Assay [2] has as its target T2, Putative uncharacterized protein pk7 (Plasmodium falciparum, UniProt O96214).
T2 sequence (O96214 whole entry): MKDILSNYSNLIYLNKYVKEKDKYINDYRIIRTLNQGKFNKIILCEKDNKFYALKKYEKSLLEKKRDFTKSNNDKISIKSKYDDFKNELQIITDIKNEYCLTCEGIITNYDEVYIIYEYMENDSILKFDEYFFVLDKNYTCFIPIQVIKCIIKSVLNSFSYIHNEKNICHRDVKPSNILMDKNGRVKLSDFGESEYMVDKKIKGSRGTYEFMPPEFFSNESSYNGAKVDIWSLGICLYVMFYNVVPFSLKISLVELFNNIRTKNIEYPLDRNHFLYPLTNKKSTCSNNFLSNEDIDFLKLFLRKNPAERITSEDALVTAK
In words: Final concentrations were 1 uM ATP, 2 mM DTT, 20 mM MgCl2, 2 mM MnCl2, 0.01% BSA, and 6 ug/ml PK7, in a buffer of 20 mM Tris-HCl (pH 7.5). The enzyme itself was the only substrate present (since autophosphorylation occurs); 100 uM 1NA-PP1 was used as a control inhibitor. Incubation time was 3 hours.

In assay [3] the target is T3, Mitogen-activated protein kinase (Plasmodium falciparum, UniProt Q25917).
T3 sequence (Q25917 whole entry): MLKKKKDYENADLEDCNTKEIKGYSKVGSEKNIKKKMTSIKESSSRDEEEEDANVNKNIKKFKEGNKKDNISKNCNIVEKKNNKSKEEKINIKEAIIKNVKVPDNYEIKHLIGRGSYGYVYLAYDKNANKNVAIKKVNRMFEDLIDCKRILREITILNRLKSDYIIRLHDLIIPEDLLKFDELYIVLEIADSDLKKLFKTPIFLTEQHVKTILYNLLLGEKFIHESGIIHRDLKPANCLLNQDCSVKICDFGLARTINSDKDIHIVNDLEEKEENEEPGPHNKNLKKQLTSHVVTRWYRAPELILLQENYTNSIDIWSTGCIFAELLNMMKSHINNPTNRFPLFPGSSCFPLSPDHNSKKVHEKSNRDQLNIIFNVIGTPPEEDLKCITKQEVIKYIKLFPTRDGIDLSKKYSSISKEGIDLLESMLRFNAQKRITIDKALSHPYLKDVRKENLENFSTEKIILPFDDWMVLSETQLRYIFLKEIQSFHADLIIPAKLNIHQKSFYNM
The assay can be described thus: Final concentrations were 1 uM ATP, 0.5 mM DTT, 1 mM MgCl2, 0.5 mg/mL BSA, and 10 ug/ml MAP2 in a buffer of 50 mM HEPES (pH 7.0). 0.5 mg/mL histone III-S served as the substrate (13); 100 uM AMP-PNP, an ATP analog, was used as a control inhibitor. Incubation time was 4 hours.

In assay [4] the target is Calcium-dependent protein kinase 1 (Plasmodium falciparum, UniProt P62344). In words: MMV: CDPK1 Protein kinase inhibition assay using recombinant PfCDPK1, syntide 2 peptide substrate, ATP and KinaseGlo to measure % inhibition at 1 uM MMV box compound.
Calcium-dependent protein kinase 1, sequence (P62344 whole entry): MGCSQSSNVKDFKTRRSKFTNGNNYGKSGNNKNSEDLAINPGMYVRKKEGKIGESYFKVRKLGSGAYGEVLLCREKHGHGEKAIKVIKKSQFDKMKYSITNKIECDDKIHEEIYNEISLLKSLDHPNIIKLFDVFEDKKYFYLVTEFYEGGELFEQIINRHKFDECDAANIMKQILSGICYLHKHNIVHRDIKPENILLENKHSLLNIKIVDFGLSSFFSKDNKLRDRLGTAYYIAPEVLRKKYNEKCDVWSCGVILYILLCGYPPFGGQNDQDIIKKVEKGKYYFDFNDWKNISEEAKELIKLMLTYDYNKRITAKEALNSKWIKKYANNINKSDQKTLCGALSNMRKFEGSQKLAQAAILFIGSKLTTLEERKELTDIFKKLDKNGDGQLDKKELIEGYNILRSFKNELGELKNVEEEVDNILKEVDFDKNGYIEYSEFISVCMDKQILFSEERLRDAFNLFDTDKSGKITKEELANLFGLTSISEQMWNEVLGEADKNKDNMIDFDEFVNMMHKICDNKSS
In assay [5] the target is T4, Calcium-dependent protein kinase 4 (Plasmodium falciparum (isolate 3D7), UniProt Q8IBS5).
T4 sequence (Q8IBS5 whole entry): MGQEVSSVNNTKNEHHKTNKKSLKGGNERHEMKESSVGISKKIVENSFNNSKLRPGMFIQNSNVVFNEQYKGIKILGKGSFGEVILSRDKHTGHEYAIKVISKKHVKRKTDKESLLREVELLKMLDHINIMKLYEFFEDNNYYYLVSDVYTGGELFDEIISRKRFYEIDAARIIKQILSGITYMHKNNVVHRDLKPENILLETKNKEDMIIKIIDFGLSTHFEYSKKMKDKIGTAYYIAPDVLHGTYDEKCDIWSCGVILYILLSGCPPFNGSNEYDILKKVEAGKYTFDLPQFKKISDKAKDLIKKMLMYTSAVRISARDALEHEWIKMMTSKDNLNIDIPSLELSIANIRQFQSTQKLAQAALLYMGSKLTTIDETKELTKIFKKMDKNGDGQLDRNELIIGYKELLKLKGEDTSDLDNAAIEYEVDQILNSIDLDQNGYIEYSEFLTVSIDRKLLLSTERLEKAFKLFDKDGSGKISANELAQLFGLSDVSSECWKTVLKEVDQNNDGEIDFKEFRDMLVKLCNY
In words: MMV: CDPK4 Protein kinase inhibition assay using recombinant PfCDPK4, syntide2 peptide substrate, ATP and KinaseGlo to measure % inhibition at 1 uM MMV box compound.

The target in assay [6] is T5, Proline--tRNA ligase (Plasmodium falciparum (isolate 3D7), UniProt Q8I5R7).
T5 sequence (Q8I5R7 whole entry): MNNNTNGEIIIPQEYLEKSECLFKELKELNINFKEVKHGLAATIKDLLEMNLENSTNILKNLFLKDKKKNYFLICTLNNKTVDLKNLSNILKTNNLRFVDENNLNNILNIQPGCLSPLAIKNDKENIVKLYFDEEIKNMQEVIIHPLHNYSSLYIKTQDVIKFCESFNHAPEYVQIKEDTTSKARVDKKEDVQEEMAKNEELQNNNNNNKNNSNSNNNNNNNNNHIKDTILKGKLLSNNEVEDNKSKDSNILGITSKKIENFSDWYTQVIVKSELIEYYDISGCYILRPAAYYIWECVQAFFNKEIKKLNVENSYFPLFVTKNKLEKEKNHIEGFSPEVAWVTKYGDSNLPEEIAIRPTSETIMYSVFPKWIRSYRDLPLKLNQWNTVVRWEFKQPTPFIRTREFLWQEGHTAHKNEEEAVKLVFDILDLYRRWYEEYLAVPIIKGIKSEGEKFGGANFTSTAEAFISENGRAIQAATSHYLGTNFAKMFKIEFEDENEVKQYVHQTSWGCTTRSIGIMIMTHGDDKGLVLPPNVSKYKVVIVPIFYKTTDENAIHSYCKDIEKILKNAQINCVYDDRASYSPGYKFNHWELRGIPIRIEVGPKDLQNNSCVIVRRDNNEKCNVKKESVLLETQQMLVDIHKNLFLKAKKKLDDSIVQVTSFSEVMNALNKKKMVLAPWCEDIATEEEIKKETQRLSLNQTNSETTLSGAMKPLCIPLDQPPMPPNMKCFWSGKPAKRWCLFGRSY
The assay can be described thus: MMV: ProRS recombinant Plasmodium falciparum Prolyl-tRNA-synthetase, assay with yeast tRNA, ATP, and proline and 3 uM MMV malaria box compound, assay read out with kinase glo as % inhibition.

The target of assay [7] is Lysine--tRNA ligase (Plasmodium falciparum (isolate 3D7), UniProt Q8IDJ8). The assay can be described thus: MMV: KRS recombinant Plasmodium falciparum Lysyl-tRNA-synthetase, assay with yeast tRNA, ATP, and lysine and 3 uM MMV malaria box compound, assay read out with kinase glo as % inhibition.
Lysine--tRNA ligase, sequence (Q8IDJ8 whole entry): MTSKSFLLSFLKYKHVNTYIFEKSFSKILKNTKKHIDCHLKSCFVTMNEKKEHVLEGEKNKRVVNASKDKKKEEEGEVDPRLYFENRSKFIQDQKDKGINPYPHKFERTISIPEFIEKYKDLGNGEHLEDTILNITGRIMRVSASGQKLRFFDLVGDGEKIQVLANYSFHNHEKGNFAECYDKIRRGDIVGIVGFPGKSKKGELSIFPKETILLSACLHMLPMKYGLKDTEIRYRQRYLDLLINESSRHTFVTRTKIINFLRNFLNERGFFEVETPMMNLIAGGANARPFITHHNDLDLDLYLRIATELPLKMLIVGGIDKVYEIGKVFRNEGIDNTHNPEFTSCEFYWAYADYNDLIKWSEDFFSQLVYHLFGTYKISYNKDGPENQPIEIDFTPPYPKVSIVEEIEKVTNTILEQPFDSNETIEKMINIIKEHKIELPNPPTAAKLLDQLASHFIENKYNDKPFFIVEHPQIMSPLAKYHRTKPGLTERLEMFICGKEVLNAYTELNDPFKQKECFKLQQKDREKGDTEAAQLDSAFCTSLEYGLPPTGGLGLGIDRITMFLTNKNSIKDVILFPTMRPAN

pIC50: −log10 of the molar value.

As to `COc1ccc(C(=O)C(CCC(CNC(C)(C)C)C(=O)c2ccc(OC)cc2)CNC(C)(C)C)cc1` (stereo not drawn), the pIC50 in assay [1] is less than 6.00; in assay [2], less than 6.00; in assay [3], less than 6.00; in assay [4], less than 6.00; in assay [5], less than 6.00; in assay [6], less than 5.60. Further, in assay [7], the pIC50 was less than 5.60.
`Cc1nc2ccccc2c(O)c1CC=C(Cl)Cl`: the negative logarithm of the IC50 (pIC50) in assay [1] was less than 6.00; in assay [2] it was less than 6.00; in assay [3] it was less than 6.00; in assay [4], less than 6.00; in assay [5], less than 6.00; in assay [6] it was less than 5.60. The pIC50 in assay [7] is less than 5.60.
Take `O=c1cc(NC2CCN(CCCc3ccccc3)CC2)c2cc(Cl)ccc2o1`: the pIC50 in assay [1] was less than 6.00; in assay [2], less than 6.00; in assay [3], less than 6.00; in assay [4], less than 6.00; in assay [5], less than 6.00; in assay [6], less than 5.60. Besides, the pIC50 in assay [7] was less than 5.60.
Regarding `COc1ccccc1CNC(=O)CCn1c(=O)[nH]c2ccsc2c1=O`, the pIC50 in assay [1] was less than 6.00; in assay [2] it was less than 6.00; in assay [3], less than 6.00; in assay [4], less than 6.00; in assay [5] it was less than 6.00; in assay [6], less than 5.60. For the same compound, the pIC50 in assay [7] was less than 5.60.
As to `CCN1CCN(Cc2ccc(NC(=O)c3cc4ccc5cccnc5c4[nH]3)cc2)CC1`, the pIC50 in assay [1] was less than 6.00; in assay [2], less than 6.00; in assay [3], less than 6.00; in assay [4], less than 6.00; in assay [5], less than 6.00; in assay [6], less than 5.60. Moreover, the pIC50 in assay [7] is less than 5.60.
Take `CCOC(=O)C1=CN(C)C=C(C(=O)OCC)C1c1cc(Br)c(OCC)c(OC)c1`: the pIC50 in assay [1] is less than 6.00; in assay [2], less than 6.00; in assay [3], less than 6.00; in assay [4], less than 6.00; in assay [5] it was less than 6.00; in assay [6] it was less than 5.60. Moreover, in assay [7], the negative logarithm of the IC50 (pIC50) is less than 5.60.
Consider `CCN(CC)CCNc1ncnc2c1[nH]c1ccc(Cl)cc12`, for which the pIC50 is less than 6.00 in assay [1]; less than 6.00 in assay [2]; less than 6.00 in assay [3]; less than 6.00 in assay [4]; less than 6.00 in assay [5]; less than 5.60 in assay [6]. The pIC50 in assay [7] was less than 5.60.
For the compound `FC(F)(F)c1cccc(Nc2nc(-c3ccccc3)nc3ncccc23)c1`, the pIC50 is less than 6.00 in assay [1]; less than 6.00 in assay [2]; less than 6.00 in assay [3]; less than 6.00 in assay [4]; less than 6.00 in assay [5]; less than 5.60 in assay [6]. Besides, the pIC50 in assay [7] was less than 5.60.
`CCOC(=O)c1cn(CC)c2cc(N(C)CCc3ccc(OC)c(OC)c3)c(F)cc2c1=O`: the pIC50 is less than 6.00 in assay [1]; less than 6.00 in assay [2]; less than 6.00 in assay [3]; less than 6.00 in assay [4]; less than 6.00 in assay [5]; less than 5.60 in assay [6]. For the same compound, the pIC50 in assay [7] is less than 5.60.
On to `CCOc1ccc(CCNC(=O)c2cccs2)cc1OCC`, for which the pIC50 in assay [1] is less than 6.00; in assay [2] it was less than 6.00; in assay [3], less than 6.00; in assay [4] it was less than 6.00; in assay [5], less than 6.00; in assay [6] it was less than 5.60. Also, in assay [7], the pIC50 was less than 5.60.
On to `CCOc1cccc(C(=O)Nc2ccc(-c3nc4ccccc4[nH]3)cc2)c1`, for which the pIC50 in assay [1] is less than 6.00; in assay [2] it was less than 6.00; in assay [3], less than 6.00; in assay [4], less than 6.00; in assay [5], less than 6.00; in assay [6], less than 5.60. Moreover, in assay [7], the pIC50 is less than 5.60.
On to `CCOc1cc(Cl)c(C(C)NC(=O)c2cccc(OC)c2)cc1OCC` (stereo not drawn), for which the pIC50 in assay [1] was less than 6.00; in assay [2], less than 6.00; in assay [3], less than 6.00; in assay [4], less than 6.00; in assay [5], less than 6.00; in assay [6] it was less than 5.60. In assay [7], the pIC50 was less than 5.60.
For `CC(C)(C)c1ccc2c(c1)CN(Cc1ccc(Cl)cc1)CO2`, the pIC50 was less than 6.00 in assay [1]; less than 6.00 in assay [2]; less than 6.00 in assay [3]; less than 6.00 in assay [4]; less than 6.00 in assay [5]; less than 5.60 in assay [6]. In assay [7], the pIC50 was less than 5.60.
With `CCOc1cc2c(cc1OCC)C(c1cc(C)c(O)c(C)c1)NCC2` (stereo not drawn), the pIC50 in assay [1] was less than 6.00; in assay [2], less than 6.00; in assay [3] it was less than 6.00; in assay [4], less than 6.00; in assay [5], less than 6.00; in assay [6], less than 5.60. The pIC50 in assay [7] is less than 5.60.
